Where “and” joins values, the source holds several entries; their conditions need not be identical. Equal values may be shown once. Read-outs that look alike come from different tables or passages of the source. Starred links: 1 amine or outer side, 2 acyl side, 3 side chain; linkers in the order of their positions; H or OH if unused. Positions of bridges follow the written chain, without caps; N, C: chain ends. Non-standard residues stand in square brackets, D forms with d. Residues, ends and D or L forms follow the SMILES beside them. *: point of attachment. pTerphenylCO(4''-OnC5H11) = CCCCCOc1ccc(-c2ccc(-c3ccc(C(=O)*)cc3)cc2)cc1; Orn(4R-OH,5R-OH) = O=C([C@H](C[C@@H](O)[C@@H](O)N[*:3])N[*:1])[*:2]; hTyr(3S-OH,4S-OH) = N[C@H](C(=O)O)[C@H](O)[C@@H](O)c1ccc(O)cc1; Pro(3S-OH,4S-Me) = C[C@H]1CN[C@H](C(=O)O)[C@H]1O; Hyp = O=C(O)[C@@H]1C[C@@H](O)CN1
How the values were obtained:
Format in all cases: cell-based
[1] = tested on: Candida auris CBS12373 KCTC 17810; assay: Antifungal MIC assay, extended panel; conditions: Candidozyma auris, comparator antifungals, read-out: MIC* Candida auris CBS12373
Description: (§1) For the fungal assays, both fungi (yeast) strains were cultured for 3 days on Yeast Extract-Peptone Dextrose (YPD; Becton Dickinson 242720) agar at 30 °C. A yeast suspension of 1 × 10^6 to 5 × 10^6 CFU/mL (as determined by OD530) was prepared from five colonies from the agar plates, subsequently diluted with Yeast Nitrogen Base media (YNB; Becton Dickinson 233520), and added to each well of the compound containing plates (384-well plates, NBS; Corning CLS3640), giving a final cell density of 2.5 × 10^3 CFU/mL and a total volume of 50 μL. Plates were covered and incubated at 35 °C for 36 h without shaking. […] MIC […] Reference Method for Broth Dilution Antifungal Susceptibility Testing of Yeasts. […] Fluconazole (Sigma F8929) was used as internal control on each plate for all strains. All compounds were tested as two technical replicates in two to four independent biological assays, n = 4–8 final data.

[2] = tested on: Candida auris CBS10913 JCM 15448; assay: Antifungal MIC assay, extended panel; conditions: Candidozyma auris, comparator antifungals, read-out: MIC* Candida auris CBS10913
Description: as §1

[3] = tested on: Candida albicans ATCC 90028 NCCLS11; assay: Antifungal MIC assay; conditions: Candida albicans, ATCC90028, comparator antifungals, read-out: MIC* Candida albicans ATCC 90028
Description: For the fungal assays, both fungi (yeast) strains were cultured for 3 days on Yeast Extract-Peptone Dextrose (YPD; Becton Dickinson 242720) agar at 30 °C. A yeast suspension of 1 × 10^6 to 5 × 10^6 CFU/mL (as determined by OD530) was prepared from five colonies from the agar plates, subsequently diluted with Yeast Nitrogen Base media (YNB; Becton Dickinson 233520), and added to each well of the compound containing plates (384-well plates, NBS; Corning CLS3640), giving a final cell density of 2.5 × 10^3 CFU/mL and a total volume of 50 μL. Plates were covered and incubated at 35 °C for 36 h without shaking. […] […], equivalent to ″optically clear-to-slightly hazy″ or MIC score of 0–1 as per CLSI guidelines M27 Reference Method for Broth Dilution Antifungal Susceptibility Testing of Yeasts. […] Fluconazole (Sigma F8929) was used as internal control on each plate for all strains. All compounds were tested as two technical replicates in two to four independent biological assays, n = 4–8 final data.

[4] = tested on: Cryptococcus deuterogattii CBS7750 VGII; Serotype B; assay: Antifungal MIC assay, extended panel; conditions: Cryptococcus deuterogattii, CBS7750, comparator antifungals
Description: (§2) For the fungal assays, both fungi (yeast) strains were cultured for 3 days on Yeast Extract-Peptone Dextrose (YPD; Becton Dickinson 242720) agar at 30 °C. A yeast suspension of 1 × 10^6 to 5 × 10^6 CFU/mL (as determined by OD530) was prepared from five colonies from the agar plates, subsequently diluted with Yeast Nitrogen Base media (YNB; Becton Dickinson 233520), and added to each well of the compound containing plates (384-well plates, NBS; Corning CLS3640), giving a final cell density of 2.5 × 10^3 CFU/mL and a total volume of 50 μL. Plates were covered and incubated at 35 °C for 36 h without shaking. […] MIC values were recorded as the lowest concentration at which the growth was inhibited by ≥80%, equivalent to ″optically clear-to-slightly hazy″ or MIC score of 0–1 as per CLSI guidelines M27 Reference Method for Broth Dilution Antifungal Susceptibility Testing of Yeasts. […] Fluconazole (Sigma F8929) was used as internal control on each plate for all strains. All compounds were tested as two technical replicates in two to four independent biological assays, n = 4–8 final data.

[5] = tested on: Cryptococcus deuterogattii ATCC 32609 VGII; assay: Antifungal MIC assay, extended panel; conditions: Cryptococcus deuterogattii, ATCC32609, comparator antifungals
Description: as §2

[6] = tested on: Candida tropicalis ATCC 750; assay: Antifungal MIC assay, extended panel; conditions: Candida tropicalis, ATCC750, comparator antifungals
Description: as §2

[7] = tested on: Candida glabrata ATCC 90030 NCCLS 84; assay: Antifungal MIC assay, extended panel; conditions: Nakaseomyces glabratus, ATCC90030, comparator antifungals
Description: as §2

[8] = tested on: Cryptococcus neoformans H99 ATCC 208821 type strain; assay: Antifungal MIC assay; conditions: Cryptococcus neoformans
Description: as §2

[9] = ≥80% inhibition, converted with MW of Table S12
[10] = ATCC208821, comparator antifungals, MIC = ≥80% inhibition, read-out: MIC* Cryptococcus neoformans ATCC 208821
[11] = ATCC208821, comparator antifungals, ≥80% inhibition, converted with MW of Table S12, read-out: MIC* Cryptococcus neoformans ATCC 208821

Row | Structure (SMILES) | MIC [8, 10] [µg/mL] | MIC [8, 11] [µM] | MIC ([1]; MIC = ≥80% inhibition) [µg/mL] | MIC [1, 9] [µM] | MIC ([2]; MIC = ≥80% inhibition) [µg/mL] | MIC [2, 9] [µM] | MIC ([3]; MIC = ≥80% inhibition) [µg/mL] | MIC [3, 9] [µM] | MIC ([4]; MIC = ≥80% inhibition) [µg/mL] | MIC [4, 9] [µM] | MIC ([5]; MIC = ≥80% inhibition) [µg/mL] | MIC [5, 9] [µM] | MIC ([6]; MIC = ≥80% inhibition) [µg/mL] | MIC [6, 9] [µM] | MIC ([7]; MIC = ≥80% inhibition) [µg/mL] | MIC [7, 9] [µM] | MIC ([8]; ATCC208821, read-out: MIC* Cryptococcus neoformans ATCC 208821)
1 | CCC(C)n1ncn(-c2ccc(N3CCN(c4ccc(OCC5COC(Cn6cncn6)(c6ccc(Cl)cc6Cl)O5)cc4)CC3)cc2)c1=O (stereo not shown) [Itraconazole, reference compound] | 1 to 2 | 1.42 to 2.83 | 2 | 2.83 | 0.063 | 0.089 | 0.062 to 0.25 | 0.089 to 0.354 | 2 to 4 | 2.83 to 5.67 | 2 to 8 | 2.83 to 11.3 | 2 | 2.83 | 32 | 45 | –
2 | CC[C@@H]([C@H](C)O)n1ncn(-c2ccc(N3CCN(c4ccc(OC[C@@H]5CO[C@@](Cn6cncn6)(c6ccc(F)cc6F)C5)cc4)CC3)cc2)c1=O [Posaconazole, reference compound] | 0.016 to 0.125 | 0.032 to 0.253 | 2 | 4.04 | 0.031 to 0.063 | 0.063 to 0.126 | 0.001 to 0.031 | 0.002 to 0.063 | 0.06 to 0.125 | 0.126 to 0.253 | 0.015 to 0.25 | 0.032 to 0.506 | 0.125 | 0.253 | 2 | 4.04 | –
3 | CCCCCOc1ccc(-c2ccc(-c3ccc(C(=O)N[C@H]4C[C@@H](O)[C@@H](O)NC(=O)[C@@H]5[C@@H](O)[C@@H](C)CN5C(=O)[C@H]([C@@H](C)O)NC(=O)[C@H]([C@H](O)[C@@H](O)c5ccc(O)cc5)NC(=O)[C@@H]5C[C@@H](O)CN5C(=O)[C@H]([C@@H](C)O)NC4=O)cc3)cc2)cc1 [Anidulafungin, reference compound] ({pTerphenylCO(4''-OnC5H11)}-[Orn(4R-OH,5R-OH)]T[Hyp][hTyr(3S-OH,4S-OH)]T[Pro(3S-OH,4S-Me)]; lactam 1-C) | – | – | 0.25 | 0.219 | 0.031 to 0.125 | 0.027 to 0.11 | 0.031 to 0.125 | 0.027 to 0.11 | 0.06 to 0.25 | 0.055 to 0.219 | 0.003 to 0.25 | 0.003 to 0.219 | 0.004 to 0.008 | 0.003 to 0.007 | 0.008 | 0.007 | 0.016 µg/mL to 0.125 µg/mL and 0.014 µM to 0.11 µM

More lines, main results first:

Row | MIC [8, 10] [µg/mL] | MIC [8, 11] [µM] | Structure (SMILES) | MIC ([1]; MIC = ≥80% inhibition) [µg/mL] | MIC [1, 9] [µM] | MIC ([2]; MIC = ≥80% inhibition) [µg/mL] | MIC [2, 9] [µM] | MIC ([3]; MIC = ≥80% inhibition) [µg/mL] | MIC [3, 9] [µM] | MIC ([4]; MIC = ≥80% inhibition) [µg/mL] | MIC [4, 9] [µM] | MIC ([5]; MIC = ≥80% inhibition) [µg/mL] | MIC [5, 9] [µM] | MIC ([6]; MIC = ≥80% inhibition) [µg/mL] | MIC [6, 9] [µM] | MIC ([7]; MIC = ≥80% inhibition) [µg/mL] | MIC [7, 9] [µM] | MIC ([8]; ATCC208821, read-out: MIC* Cryptococcus neoformans ATCC 208821)
4 | 0.098 to 1.56 | 0.089 to 1.43 | CC[C@H](C)C[C@H](C)CCCCCCCCC(=O)N[C@H]1C[C@@H](O)[C@@H](NCCN)NC(=O)[C@@H]2[C@@H](O)CCN2C(=O)[C@H]([C@H](O)CCN)NC(=O)[C@H]([C@H](O)[C@@H](O)c2ccc(O)cc2)NC(=O)[C@@H]2C[C@@H](O)CN2C(=O)[C@H]([C@@H](C)O)NC1=O [Caspofungin, reference compound] | 12.5 | 11.4 | 6.25 | 5.72 | 0.391 to 1.56 | 0.357 to 1.43 | 0.06 to 0.1 | 0.029 to 0.089 | 0.1 to 0.63 | – | 1.56 | 1.43 | 6.25 to 12.5 | 5.72 to 11.4 | –
5 | 2 to 8 | 3.01 to 12.3 | C[C@@H]1[C@H](O)[C@@H](C)/C=C/C=C/C=C/C=C/C=C/C=C/C=C/[C@H](O[C@@H]2O[C@H](C)[C@@H](O)[C@H](N)[C@@H]2O)C[C@@H]2O[C@](O)(C[C@@H](O)C[C@@H](O)[C@H](O)CC[C@@H](O)C[C@@H](O)CC(=O)O[C@H]1C)C[C@H](O)[C@H]2C(=O)O [Amphotericin B, reference compound] | > 128 | ≥ 196 | 16 | 24.5 | 0.125 to 1 | 0.192 to 1.53 | 1 to 8 | 1.53 to 12.3 | 4 to 16 | 6.13 to 24.5 | 2 to 4 | 3.01 to 6.13 | ≥ 64 | ≥ 98.2 | –
6 | 0.001 to 0.016 | 0.0107 to 0.172 | Nc1nc(=O)[nH]cc1F [5-Fluorocytosine, reference compound] | ≤ 0.002 | ≤ 0.021 | ≤ 0.002 | ≤ 0.021 | ≤ 0.001 | ≤ 0.012 | 0.06 to 0.25 | 0.686 to 2.75 | 0.002 to 0.25 | 0.021 to 2.75 | 0.001 to 0.002 | 0.012 to 0.021 | > 32 | > 351 | –
